Results published in US8865163B2, “Pharmaceutical compositions and methods of treatment” (priority 2010, dated 2014).

Columns and labels:
Assay type in all cases: in vivo
[1] = Open field test, motor activity of mice given nicotine; conditions: nicotine 0.3 mg/kg s.c. over 4 days
Excerpt: The effects of I) the combination of ultra-low doses of polyclonal rabbit antibodies to brain-specific protein S-100 (ULD anti-S100) and ultra-low doses of antibodies to cannabinoid receptor type 1 (ULD anti-CB1), each obtained by hyper-dilution of the initial matrix solution 100^12, 100^30, 100^200 times (mixture of centesimal homeopathic dilutions C12, C30, C200) (ULD anti-S100+ULD anti-CB1), ii) ULD anti-CB1 alone, and iii) ULD anti-S100 alone, on motor activity of mice were studied to evaluate their anti-nicotine properties.
40 white outbred male mice (22-25 g, 1.5 mo.) were used. 10 mice were intact. The rest of the mice were administered nicotine subcutaneously over 4 days at the dose of 0.3 mg/kg, Nicotine administration was preceded (1 hour prior) by intragastrical administration of either distilled water (control, 0.4 ml/mouse), or ULD anti-S100 (0.4 ml/mouse), or ULD anti-CB1 (0.4 ml/mouse), or ULD anti-S100+ULD anti-CB1 (0.4 ml/mouse). 30 minutes after the last administration of nicotine, an “open field” test was conducted. The animals were placed in the center of a TruScan photo-sensory installation (Coulbourn, USA), where the vertical and horizontal locomotor activity of the animals was automatically recorded in the course of two (2) minutes. The “open field” model makes it possible to evaluate the effect of the compounds on the locomotor activity of the animals (Gershenfield H. K., Neumann P. E., Mathis C., Crawley J. N., Li X., Paul S. M. Mapping quntative Trait Loci for Open-Field Behavior in Mice. Behavioral Genetics.—1997.—Vol. 27.—No 3.—p. 201-209, which is incorporated herein by reference in its entirety and for the purpose stated). The installation parameters: size 270×270×360 mm, divided into 64 squares, 2.5×2.5, with 25 mm openings situated in the platform floor, illumination of a 150 watt lamp.

[2] = Body mass growth of C57B1 mice on high (45%) fat diet, 2 months; conditions: for Body mass (grams): high fat diet
Excerpt: (§1) The test substance was in the form of an aqueous solution of ultra-low doses of polyclonal rabbit antibodies to human cannabinoid receptor type 1 (ULD anti-CB1), purified on antigen, obtained by hyper-dilution of the initial matrix solution 100^12, 100^30, 100^200 times (mixture of centesimal homeopathic dilutions C12, C30, and C200).
33 male mice of the C57B1 line were used in the study (weight at the beginning of the study: 13.09±0.738 g). The mice received the modified diet with high (45%) fat content and simultaneously either distilled water (control, 0.2 ml/mouse) or Subutramine (10 mg/Kg) or ULD anti-CB1 (0.2 ml/mouse). All ULD anti-CB1 preparations were given intragastrically once a day in the course of 2 months. The mice weight was measured on Philips Cucina HR 239016 (Hungary) electronic scales until beginning to introduce the preparations (initially) and also each week after beginning to introduce them. The body mass growth of the mice was evaluated as a percentage of the initial weight.

[3] = Feed consumption and body mass growth of C57B1 mice on high calorie diet, 5 months
Excerpt: as §1
40 male mice of the C57B1 line were used in the study (weight at the beginning of the study: 13.5-15.5 g). 10 mice received the regular standard feed (standard diet); 30 mice received the standard feed with high calorie additives (high calories diet) and, simultaneously, either distilled water (control, 0.4 ml/mouse) or Subutramine (Meridia 10 mg capsules, Abbott GmbH, Germany) (10 mg/Kg) or ULD anti-CB1 (0.4 ml/mouse). All preparations were given intragastrically once a day in the course of 5 months. The mice consumption of feed was measured before test substances were introduced. The mice consumption of feed was also measured each week thereafter. The consumption of feed was evaluated as an average quantity of food (in grams), consumed by a mouse after 1 and 2 months of the study, and as an average quantity of feed per 10 g of mouse body mass.

Question: Which “decrease of immobility time in comparison with the intact animals” value [1] does the source give for CN1CCCC1c1cccnc1 (centres unmarked) [nicotine] here?
Answer: 13.5%

Question: What about the “increase of activity time in comparison with the intact animals” value [1] of the same molecule?
Answer: 8.2%

Question: And the “increase of distance traveled in comparison with the intact animals” value [1]?
Answer: 5.1%

Question: And the “increase of quantity of openings investigated in comparison with the intact animals” value [1]?
Answer: 78.2%

Question: And the “increase of study reaction time in comparison with the intact animals” value [1]?
Answer: 76.9%

Question: With CC(C)CC(N(C)C)C1(c2ccc(Cl)cc2)CCC1 (centres unmarked) [Subutramine] as the molecule, how does the “Body mass (grams)” value ([2]; week 0 (initial)) read?
Answer: 13.82 grams

Question: And the “Δ to initial (body mass growth, percentage of initial weight)” value ([2]; week 1)?
Answer: −2.6%

Question: What about the “Body mass (grams)” value ([2]; week 1) of the same molecule?
Answer: 13.45 grams

Question: And the “Δ to initial (body mass growth, percentage of initial weight)” value ([2]; week 2)?
Answer: 21.1%

Question: And the “Body mass (grams)” value ([2]; week 2)?
Answer: 16.73 grams

Question: And the “Δ to initial (body mass growth, percentage of initial weight)” value ([2]; week 3)?
Answer: 43.4%

Question: What about the “Body mass (grams)” value ([2]; week 3) of the same molecule?
Answer: 19.82 grams

Question: And the “Δ to initial (body mass growth, percentage of initial weight)” value ([2]; week 4)?
Answer: 46.1%

Question: And the “Body mass (grams)” value ([2]; week 4)?
Answer: 20.18 grams

Question: And the “Δ to initial (body mass growth, percentage of initial weight)” value ([2]; week 5)?
Answer: 51.3%

Question: What about the “Body mass (grams)” value ([2]; week 5) of the same molecule?
Answer: 20.91 grams

Question: And the “Δ to initial (body mass growth, percentage of initial weight)” value ([2]; week 6)?
Answer: 61.8%

Question: And the “Body mass (grams)” value ([2]; week 6)?
Answer: 22.36 grams

Question: What about the “Δ to initial (body mass growth, percentage of initial weight)” value ([2]; week 7) of the same molecule?
Answer: 71.1%

Question: What about the “Body mass (grams)” value ([2]; week 7) of the same molecule?
Answer: 23.64 grams

Question: What about the “Δ to initial (body mass growth, percentage of initial weight)” value ([2]; week 8) of the same molecule?
Answer: 65.8%

Question: What about the “Body mass (grams)” value ([2]; week 8) of the same molecule?
Answer: 22.91 grams

Question: And the “Consumption of feed (g per 10 g of body mass) per day” value ([3]; average over 5 months, M±m)?
Answer: 1.28 ± 0.05 g per 10 g of body mass per da

Question: What about the “Consumption of feed (g/mouse) per day” value ([3]; average over 5 months, M±m) of the same molecule?
Answer: 2.75 ± 1.36 g/mouse per day

Question: And the “decrease of consumption of feed in reference to the control” value ([3]; intragastrically once a day, in a week)?
Answer: 19.3%

Question: And the “lowered body mass in comparison with the control group” value ([3]; last twentieth week)?
Answer: 51.5%
